Assay results taken from patent US12054501B2, “Compositions and methods for inhibiting arginase activity” (Precision Pharmaceuticals Inc., priority 2016, dated 2024).
“Also recorded” adds a separate entry of the source.

Tests used:
[1] = test system: Lewis Lung Carcinoma cells; assay: Lewis Lung Carcinoma efficacy study (tumor volume over time); format: in vivo; conditions: single agent, dosed orally twice daily at 50, 100 or 200 mg/kg; C57BL/6 mice implanted with Lewis Lung Carcinoma cells; relative to control
Experimental: Female C57.Bl/6 mice (n=40) were implanted subcutaneously with 1×10^6 Lewis Lung Carcinoma cells suspended in PBS. The day following implantation, mice were randomized into 4 groups of n=10 mice to receive the following treatments dosed orally twice daily until study end: 1) Vehicle (water); 2) Compound 10 at 50 mg/kg formulated in water; 3) Compound 10 at 100 mg/kg formulated in water; or 4) Compound 10 at 200 mg/kg formulated in water. Tumors were measured three times per week with digital calipers and tumor volumes calculated with the following formula: tumor volume (mm^3)=(a×b^2/2) where ‘b’ is the smallest diameter and ‘a’ is the largest perpendicular diameter. ***P-value <0.001, ****P-value <0.0001 (Two-sided T-test).

[2] = Moisture sorption/desorption isotherm (TGA study, humidity uptake); format: physicochemical
Experimental: In the TGA study, a weighted amount of compound 10e was treated with increasing amounts of water vapor (increased humidity) and the impact of humidity on the weight of the sample was evaluated.

[3] = Hydrolysis of the ethanolate in water (NMR in D2O, HPLC-MS); format: physicochemical; conditions: hydrolysis to the open free boronic acid form, compound 10
Experimental: The rapid conversion of compound 10e to compound 10 in water was confirmed by the similarity of a spectrum of 10e in D2O to a spectrum of 10 in D2O. When a sample of compound 10e was dissolved in D2O and the spectra immediately recorded (elapsed time <5 minutes), the spectra observed is identical to a spectra of compound 10 (the free boronic acid) plus ethanol (1:1 ratio). The spectrum of 10e in D2O was the same at 5 minutes and one hour after sample preparation, indicating the transformation was rapid and complete after a few minutes.
The NMR spectra (D2O) labeled A is compound 10 (free base) prepared from 11 as described in Example 2. The NMR spectra (D2O) labeled B is an analytical sample of compound 10e prepared as described above. The NMR spectra (D2O) labeled C is the sample from spectra B that has been lyophilized and redissolved in D2O.
Upon dissolution in 1:1 water/acetonitrile and immediate injection into an HPLC system, only a single peak is observed. The mass of this peak is consistent with compound 10.

hysteresis of sorption and desorption isotherms [2]	observed moisture uptake ([2]; at 90% relative humidity (RH))	stability under physiological conditions or any other aqueous conditions [3]	SMILES	tumor growth (tumor volume over time) [1]	hygroscopicity ([2]; as humidity is increased)
minimal hysteresis	over 70%		C[C@H](N)C(=O)N1C[C@H](CCCB(O)O)[C@](N)(C(=O)O)C1 [Compound 10]	slows tumor growth relative to control	absorbs increasing amounts of water as the humidity increases; also recorded: hygroscopic
		rapidly hydrolyzes	CCOB1CCC[C@H]2CN(C(=O)[C@H](C)N)C[C@@]2(N)C(=O)O1 [Compound 10e, (6aS,9aR)-8-(L-alanyl)-9a-amino-3-ethoxyoctahydro-[1,2]oxaborocino[6,7-c]pyrrol-1(3H)-one]		
